The results in this text go back to patent US7074789B2, “Kinase inhibitors” (Amgen Inc., priority 1999, dated 2006).

Common to all, as to format: biochemical
For test [1], the target named is T1, Lck (Homo sapiens, UniProt P06239).
T1 construct: Kinases are expressed as either kinase domains or full length constructs; made in house
Briefly: Kinase inhibition assay (33P transfer), Lck. To be noted: Table 3; read-out: Lck-1. An outline of the steps: (§1)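 Kinase domain or full-length constructs, GST- or polyHis-tagged, expressed in E. coli or baculovirus-High Five cells, sometimes with regulatory polypeptides. Activity measured as 33PO4 transfer from ATP to plate-bound poly(Glu,Tyr) 4:1 or poly(Arg,Ser) 3:1; after incubation, plates washed with 0.5% phosphoric acid and counted by liquid scintillation.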

Test [2] deals with T2, Lyn (Homo sapiens, UniProt P07948).
T2 construct: Kinases are expressed as either kinase domains or full length constructs; made in house
T2 sequence (P07948 whole entry, species assumed, the tested form may be a part): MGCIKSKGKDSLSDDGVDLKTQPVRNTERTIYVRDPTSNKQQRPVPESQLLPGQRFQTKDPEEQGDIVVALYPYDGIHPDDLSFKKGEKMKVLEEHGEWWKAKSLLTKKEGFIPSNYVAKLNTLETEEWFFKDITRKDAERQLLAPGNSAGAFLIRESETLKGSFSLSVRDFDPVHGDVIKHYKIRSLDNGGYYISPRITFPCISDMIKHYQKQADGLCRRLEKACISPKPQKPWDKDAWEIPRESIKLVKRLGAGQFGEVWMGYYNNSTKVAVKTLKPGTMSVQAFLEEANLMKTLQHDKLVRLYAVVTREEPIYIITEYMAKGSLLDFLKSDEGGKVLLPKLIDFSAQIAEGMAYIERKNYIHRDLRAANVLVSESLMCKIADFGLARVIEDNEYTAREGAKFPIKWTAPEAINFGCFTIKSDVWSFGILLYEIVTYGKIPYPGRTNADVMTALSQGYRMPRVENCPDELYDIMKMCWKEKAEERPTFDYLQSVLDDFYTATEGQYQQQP
Briefly: Kinase inhibition assay (33P transfer), Lyn. To be noted: Table 6, Lyn-1 kinase inhibition class. In a few lines:
(§2)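 Steps: coat wells with poly(Glu,Tyr) 4:1 or poly(Arg,Ser) 3:1; add purified kinase, [33P]ATP and inhibitor; incubate; wash with 0.5% phosphoric acid; add liquid scintillant; count. IC50 corresponds to half-maximal reduction of bound 33P.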

In test [3] the target is T3, Src (Homo sapiens, UniProt P12931).
T3 construct: Kinases are expressed as either kinase domains or full length constructs; made in house
T3 sequence (P12931 whole entry, species assumed, the tested form may be a part): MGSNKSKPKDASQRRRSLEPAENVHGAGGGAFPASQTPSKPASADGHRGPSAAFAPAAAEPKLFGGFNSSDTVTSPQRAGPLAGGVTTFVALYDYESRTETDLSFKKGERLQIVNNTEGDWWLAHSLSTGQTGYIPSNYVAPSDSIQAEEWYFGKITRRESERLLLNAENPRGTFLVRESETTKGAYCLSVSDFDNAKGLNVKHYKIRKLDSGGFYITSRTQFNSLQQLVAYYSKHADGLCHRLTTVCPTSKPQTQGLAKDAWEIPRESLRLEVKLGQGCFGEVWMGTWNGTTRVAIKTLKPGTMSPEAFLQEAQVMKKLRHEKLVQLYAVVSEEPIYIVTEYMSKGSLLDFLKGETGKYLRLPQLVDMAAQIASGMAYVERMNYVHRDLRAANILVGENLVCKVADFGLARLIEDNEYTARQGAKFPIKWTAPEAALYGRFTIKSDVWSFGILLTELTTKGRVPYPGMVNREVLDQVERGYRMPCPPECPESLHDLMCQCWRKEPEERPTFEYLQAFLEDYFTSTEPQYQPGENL
The experiment in a line: Kinase inhibition assay (33P transfer), Src. Conditions: Table 6, Src-1 kinase inhibition class. In a few lines: as §2

The target in test [4] is T4, Zap-70 (Homo sapiens, UniProt P43403).
T4 construct: Kinases are expressed as either kinase domains or full length constructs; made in house
T4 sequence (P43403 1-619): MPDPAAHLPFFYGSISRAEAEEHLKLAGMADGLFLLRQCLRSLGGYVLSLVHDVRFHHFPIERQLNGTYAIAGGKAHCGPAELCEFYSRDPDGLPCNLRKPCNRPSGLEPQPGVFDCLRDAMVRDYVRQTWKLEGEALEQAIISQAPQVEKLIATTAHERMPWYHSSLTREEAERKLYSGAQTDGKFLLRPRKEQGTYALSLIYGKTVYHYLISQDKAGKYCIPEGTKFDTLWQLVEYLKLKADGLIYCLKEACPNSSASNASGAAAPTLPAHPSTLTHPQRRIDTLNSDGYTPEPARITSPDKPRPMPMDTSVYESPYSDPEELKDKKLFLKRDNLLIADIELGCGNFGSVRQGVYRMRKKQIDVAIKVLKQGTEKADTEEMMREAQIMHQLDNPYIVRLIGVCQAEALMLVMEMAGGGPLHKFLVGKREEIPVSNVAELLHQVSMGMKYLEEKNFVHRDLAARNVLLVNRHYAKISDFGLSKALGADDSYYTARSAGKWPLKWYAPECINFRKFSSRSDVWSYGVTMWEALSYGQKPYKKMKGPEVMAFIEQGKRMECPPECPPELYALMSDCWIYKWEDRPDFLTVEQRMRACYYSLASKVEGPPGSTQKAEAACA
The experiment in a line: Kinase inhibition assay (33P transfer), Zap-70. To be noted: Table 3; read-out: Zap-1. An outline of the steps: as §1

The target in test [5] is T5, EGFR (Homo sapiens, UniProt P00533).
T5 construct: Kinases are expressed as either kinase domains or full length constructs; made in house
T5 sequence (P00533 25-1210, species assumed): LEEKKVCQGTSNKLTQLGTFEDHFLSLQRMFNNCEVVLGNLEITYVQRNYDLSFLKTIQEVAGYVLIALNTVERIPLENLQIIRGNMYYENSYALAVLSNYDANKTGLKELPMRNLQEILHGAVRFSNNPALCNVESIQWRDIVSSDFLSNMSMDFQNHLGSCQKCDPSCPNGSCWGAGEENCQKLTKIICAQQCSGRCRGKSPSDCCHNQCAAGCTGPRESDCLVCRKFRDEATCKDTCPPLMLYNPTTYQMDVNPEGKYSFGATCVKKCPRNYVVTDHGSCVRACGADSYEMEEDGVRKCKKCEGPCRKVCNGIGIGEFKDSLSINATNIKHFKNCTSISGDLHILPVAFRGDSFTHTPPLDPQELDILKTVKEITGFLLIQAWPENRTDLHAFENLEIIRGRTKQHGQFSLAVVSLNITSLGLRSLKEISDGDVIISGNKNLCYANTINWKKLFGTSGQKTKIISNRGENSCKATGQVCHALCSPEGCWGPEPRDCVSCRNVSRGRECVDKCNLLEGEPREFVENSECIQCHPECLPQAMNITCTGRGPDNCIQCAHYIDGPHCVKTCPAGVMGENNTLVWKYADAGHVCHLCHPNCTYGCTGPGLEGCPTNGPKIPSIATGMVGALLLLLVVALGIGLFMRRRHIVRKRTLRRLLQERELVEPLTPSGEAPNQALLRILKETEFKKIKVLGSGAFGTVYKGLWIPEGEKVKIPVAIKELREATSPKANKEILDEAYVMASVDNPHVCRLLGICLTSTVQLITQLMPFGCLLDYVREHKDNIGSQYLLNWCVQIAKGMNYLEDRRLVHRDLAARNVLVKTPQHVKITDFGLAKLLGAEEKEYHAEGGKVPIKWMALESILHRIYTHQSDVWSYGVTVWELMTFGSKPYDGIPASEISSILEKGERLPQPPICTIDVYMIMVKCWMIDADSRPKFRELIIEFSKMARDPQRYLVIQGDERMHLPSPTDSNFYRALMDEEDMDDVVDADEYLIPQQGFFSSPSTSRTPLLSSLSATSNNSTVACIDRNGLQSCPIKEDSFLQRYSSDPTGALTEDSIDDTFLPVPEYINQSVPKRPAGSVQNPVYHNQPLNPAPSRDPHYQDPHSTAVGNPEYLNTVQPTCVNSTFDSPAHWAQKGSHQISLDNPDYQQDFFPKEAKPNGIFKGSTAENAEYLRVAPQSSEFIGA
Briefly: Kinase inhibition assay (33P transfer), EGFR. Conditions: Table 2, kinase inhibition class; read-out: EGFR-1. An outline of the steps: as §2

The target of test [6] is T6, Tek (Homo sapiens, UniProt Q02763).
T6 construct: Kinases are expressed as either kinase domains or full length constructs; made in house
T6 sequence (Q02763 23-1124, species assumed): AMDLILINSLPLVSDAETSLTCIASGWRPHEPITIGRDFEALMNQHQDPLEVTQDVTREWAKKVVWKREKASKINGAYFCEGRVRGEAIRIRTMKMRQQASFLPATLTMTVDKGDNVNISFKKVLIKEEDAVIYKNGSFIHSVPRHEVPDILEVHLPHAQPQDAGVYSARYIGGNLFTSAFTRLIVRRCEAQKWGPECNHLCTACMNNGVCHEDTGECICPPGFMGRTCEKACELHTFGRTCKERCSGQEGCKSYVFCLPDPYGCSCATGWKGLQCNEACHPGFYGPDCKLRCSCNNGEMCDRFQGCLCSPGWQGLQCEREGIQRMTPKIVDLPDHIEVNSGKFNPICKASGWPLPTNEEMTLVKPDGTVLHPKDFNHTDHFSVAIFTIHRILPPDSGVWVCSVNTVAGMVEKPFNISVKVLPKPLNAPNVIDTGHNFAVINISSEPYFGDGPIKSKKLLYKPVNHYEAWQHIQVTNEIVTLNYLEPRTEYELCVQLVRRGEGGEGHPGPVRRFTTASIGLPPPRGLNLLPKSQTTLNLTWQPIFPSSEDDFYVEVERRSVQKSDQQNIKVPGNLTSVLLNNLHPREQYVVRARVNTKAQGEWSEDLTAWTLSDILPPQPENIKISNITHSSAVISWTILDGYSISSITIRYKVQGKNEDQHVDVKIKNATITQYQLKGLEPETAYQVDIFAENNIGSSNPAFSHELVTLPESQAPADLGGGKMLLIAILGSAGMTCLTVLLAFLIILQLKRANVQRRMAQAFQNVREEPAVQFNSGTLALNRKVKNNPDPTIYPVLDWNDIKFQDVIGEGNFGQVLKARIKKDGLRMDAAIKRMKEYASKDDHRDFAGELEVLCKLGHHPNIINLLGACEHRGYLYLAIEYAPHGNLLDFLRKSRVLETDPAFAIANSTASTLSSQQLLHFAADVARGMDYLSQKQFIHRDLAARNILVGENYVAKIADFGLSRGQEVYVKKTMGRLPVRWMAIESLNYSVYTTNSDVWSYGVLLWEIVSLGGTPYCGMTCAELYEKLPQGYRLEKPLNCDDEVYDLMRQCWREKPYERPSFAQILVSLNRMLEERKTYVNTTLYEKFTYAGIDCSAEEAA
Briefly: Kinase inhibition assay (33P transfer), Tek. To be noted: read-out: Tek-1. An outline of the steps: as §2

Test [7] concerns the target T7, EPHB4 (Homo sapiens, UniProt P54760).
T7 construct: Kinases are expressed as either kinase domains or full length constructs; made in house
T7 sequence (P54760 16-987): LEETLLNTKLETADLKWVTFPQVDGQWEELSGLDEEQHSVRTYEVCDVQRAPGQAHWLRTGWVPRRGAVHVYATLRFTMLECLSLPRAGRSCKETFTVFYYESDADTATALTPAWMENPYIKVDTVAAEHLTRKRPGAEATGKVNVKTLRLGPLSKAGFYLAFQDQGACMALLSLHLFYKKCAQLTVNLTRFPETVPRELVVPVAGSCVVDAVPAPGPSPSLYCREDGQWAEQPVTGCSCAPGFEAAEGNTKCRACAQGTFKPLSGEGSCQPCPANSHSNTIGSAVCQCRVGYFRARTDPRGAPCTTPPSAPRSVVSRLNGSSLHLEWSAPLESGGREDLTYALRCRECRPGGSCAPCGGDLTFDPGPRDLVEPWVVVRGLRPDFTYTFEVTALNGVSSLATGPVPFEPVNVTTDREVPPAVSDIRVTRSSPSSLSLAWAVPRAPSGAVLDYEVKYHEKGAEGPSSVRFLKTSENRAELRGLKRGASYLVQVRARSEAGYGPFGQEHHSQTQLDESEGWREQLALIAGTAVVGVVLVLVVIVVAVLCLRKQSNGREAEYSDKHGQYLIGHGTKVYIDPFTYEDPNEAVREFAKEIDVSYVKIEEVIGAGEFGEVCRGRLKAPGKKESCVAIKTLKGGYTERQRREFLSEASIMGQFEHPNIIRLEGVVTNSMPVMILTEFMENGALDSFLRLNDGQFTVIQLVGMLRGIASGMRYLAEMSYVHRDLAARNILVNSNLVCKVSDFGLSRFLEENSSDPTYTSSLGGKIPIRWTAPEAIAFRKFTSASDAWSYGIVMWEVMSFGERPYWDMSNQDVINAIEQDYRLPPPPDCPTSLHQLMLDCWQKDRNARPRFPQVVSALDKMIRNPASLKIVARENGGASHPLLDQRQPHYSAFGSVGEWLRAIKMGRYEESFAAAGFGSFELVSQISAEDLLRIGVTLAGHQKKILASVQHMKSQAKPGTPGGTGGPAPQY
Briefly: Kinase inhibition assay (33P transfer), EPHB4. Conditions: read-out: EPHB4-1.

In test [8] the target is T8, Hck-1 (Homo sapiens, UniProt P08631).
T8 construct: Kinases are expressed as either kinase domains or full length constructs; made in house
T8 sequence (P08631 whole entry, the tested form may be a part): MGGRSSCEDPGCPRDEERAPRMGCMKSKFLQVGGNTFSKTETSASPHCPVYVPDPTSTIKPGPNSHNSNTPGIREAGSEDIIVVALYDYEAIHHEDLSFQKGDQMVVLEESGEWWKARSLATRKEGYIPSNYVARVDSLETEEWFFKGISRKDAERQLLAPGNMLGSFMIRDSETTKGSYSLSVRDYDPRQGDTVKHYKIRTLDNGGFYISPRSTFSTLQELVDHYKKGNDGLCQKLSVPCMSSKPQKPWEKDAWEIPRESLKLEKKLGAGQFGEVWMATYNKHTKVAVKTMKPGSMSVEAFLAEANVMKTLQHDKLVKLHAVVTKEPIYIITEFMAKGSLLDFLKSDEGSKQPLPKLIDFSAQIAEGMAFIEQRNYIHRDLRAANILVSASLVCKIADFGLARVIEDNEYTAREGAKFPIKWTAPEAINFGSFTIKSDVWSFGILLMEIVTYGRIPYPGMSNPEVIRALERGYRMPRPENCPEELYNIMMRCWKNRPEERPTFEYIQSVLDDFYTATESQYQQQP
The experiment in a line: Kinase inhibition assay (33P transfer), Hck. Conditions: Table 6, Hck-1 kinase inhibition class.

The target of test [9] is T9, Ret-1 (Homo sapiens, UniProt P07949).
T9 construct: Kinases are expressed as either kinase domains or full length constructs; made in house
The experiment in a line: Kinase inhibition assay (33P transfer), Ret. To be noted: Table 6, Ret-1 kinase inhibition class.

T1 sequence (P06239 whole entry, species assumed, the tested form may be a part): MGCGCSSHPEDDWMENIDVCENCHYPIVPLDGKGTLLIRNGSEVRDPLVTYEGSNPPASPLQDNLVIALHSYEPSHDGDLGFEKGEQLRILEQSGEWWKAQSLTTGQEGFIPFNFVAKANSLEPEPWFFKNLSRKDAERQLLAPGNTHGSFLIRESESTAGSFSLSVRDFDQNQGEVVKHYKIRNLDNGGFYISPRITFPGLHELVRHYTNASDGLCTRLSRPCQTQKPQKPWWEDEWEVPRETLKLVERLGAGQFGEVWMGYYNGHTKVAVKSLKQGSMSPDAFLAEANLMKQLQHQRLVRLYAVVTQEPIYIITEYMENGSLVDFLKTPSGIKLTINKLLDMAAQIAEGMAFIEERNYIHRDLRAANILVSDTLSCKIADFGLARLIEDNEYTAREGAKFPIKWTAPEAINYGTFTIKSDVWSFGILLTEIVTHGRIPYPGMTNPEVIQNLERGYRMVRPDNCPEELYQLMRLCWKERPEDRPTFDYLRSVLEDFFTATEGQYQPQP

In the case of `COc1cc(Nc2ncnc(-n3ccc4ccc(Cl)cc43)n2)cc(OC)c1OC` [Compound 237], the IC50 in test [1] is 0.971 to 5.83 µM; in [2] it was 5.83 to 8.5 µM; in test [3], > 10.9 µM; in test [4], 8.5 to 10.9 µM; in [5], 8.5 to 10.9 µM; in [6], > 10.9 µM. Besides, the IC50 was 8.5 to 10.9 µM in test [7], > 10.9 µM in [8] and 5.83 to 8.5 µM in test [9].

With `C#Cc1cccc(Nc2ncnc(Nc3ccc(OC)c(OC)c3)n2)c1` [Compound 116], the IC50 was 10.1 to 13 µM in [1]; > 13 µM in [2]; > 13 µM in test [3]; > 13 µM in [4]; < 1.15 µM in [5]; > 13 µM in test [6]. Also, the IC50 in [7], in [8] and in [9] was > 13 µM each time.

On to `COCCOc1ccc(Nc2ncnc(Nc3ccc(C)c(O)c3)n2)cc1OCCOC` [Compound 125], for which the IC50 in test [1] was 0.906 to 5.44 µM; in test [2], < 0.906 µM; in test [3] it was < 0.906 µM; in [4], > 10.2 µM; in [5] it was 0.906 to 5.44 µM; in [6], > 10.2 µM. The IC50 in test [7] was > 10.2 µM; in test [8], 7.93 to 10.2 µM; in [9] it was 0.906 to 5.44 µM.

On to `COCCOc1ccc(Nc2ncnc(Nc3ccc(C)c(O)c3)n2)cc1OC` [Compound 123], for which the IC50 in [1] was 1.01 to 6.04 µM; in [2], < 1.01 µM; in [3], < 1.01 µM; in test [4] it was > 11.3 µM; in test [5], < 1.01 µM; in [6], 8.81 to 11.3 µM. The results for the IC50 in [7], in [8] and in test [9] were > 11.3 µM, 6.04 to 8.81 µM and < 1.01 µM, respectively.

With `COc1cc(Nc2ncnc(-n3ccc4c(OC)cccc43)n2)cc(OC)c1OC` [Compound 238], the IC50 in test [1], in test [2], in test [3], in [4], in test [5] and in test [6] was > 11 µM each time. For the same molecule, the IC50 in test [7], in [8] and in [9] was > 11 µM each time.

Regarding `COc1cc(Nc2ncnc(Nc3cc(-c4cccs4)n[nH]3)n2)cc(OC)c1OC` [Compound 318], the IC50 is 0.94 to 5.64 µM in test [1]; < 0.94 µM in test [2]; < 0.94 µM in test [3]; > 10.6 µM in test [4]; < 0.94 µM in [5]; 5.64 to 8.23 µM in [6]. The results for the IC50 in [7], in test [8] and in test [9] were < 0.94 µM, 0.94 to 5.64 µM and < 0.94 µM, respectively.

Regarding `COc1ccc(Nc2ncnc(N(CC(=O)O)c3ccc4c(c3)OCO4)n2)cc1OC` [Compound 320], the IC50 in test [1] was 5.64 to 8.23 µM; in test [2] it was > 10.6 µM; in [3], > 10.6 µM; in [4], 8.23 to 10.6 µM; in [5], 0.94 to 5.64 µM; in [6], > 10.6 µM. In addition, the IC50 in [7], in test [8] and in [9] was > 10.6 µM throughout.

For the molecule `COc1cc(Nc2ncnc(-n3c(N)nc4ccccc43)n2)ccc1OCCn1ccnn1` [Compound 324], the IC50 in [1] is > 10.1 µM; in [2], > 10.1 µM; in [3] it was > 10.1 µM; in test [4] it was > 10.1 µM; in test [5] it was > 10.1 µM; in test [6] it was 0.9 to 5.4 µM. Besides, the IC50 in test [7] is > 10.1 µM; in [8], > 10.1 µM; in test [9] it was < 0.9 µM.

As for `COc1cc(Nc2ncnc(-n3cc(C)c4ccccc43)n2)cc(OC)c1OC` [Compound 323], the IC50 was 8.94 to 11.5 µM in test [1]; > 11.5 µM in [2]; > 11.5 µM in test [3]; 8.94 to 11.5 µM in test [4]; > 11.5 µM in test [5]; > 11.5 µM in test [6]. The IC50 in test [7], in [8] and in test [9] was > 11.5 µM each time.

On to `COc1cc(Nc2ncnc(N(c3ccccc3)c3nc4ccccc4[nH]3)n2)cc(OC)c1OC` [Compound 335], for which the IC50 in [1] was 0.852 to 5.11 µM; in test [2] it was 0.852 to 5.11 µM; in test [3] it was 5.11 to 7.45 µM; in test [4], > 9.58 µM; in [5] it was < 0.852 µM; in [6], > 9.58 µM. For the same molecule, the values for the IC50 in [7], in [8] and in test [9] were 0.852 to 5.11 µM, > 9.58 µM and < 0.852 µM, respectively.

Turning to `COCCOc1ccc(Nc2ncnc(Nc3cc(-c4ccco4)n[nH]3)n2)cc1OCCOC` [Compound 328], the IC50 in test [1] was 0.856 to 5.13 µM; in test [2], 0.856 to 5.13 µM; in [3] it was 0.856 to 5.13 µM; in test [4] it was > 9.63 µM; in test [5] it was 0.856 to 5.13 µM; in test [6], 5.13 to 7.49 µM. Further, the IC50 in [7] is > 9.63 µM; in test [8], 5.13 to 7.49 µM; in test [9], 0.856 to 5.13 µM.

As to `COc1cc(Nc2ncnc(Nc3ccc4c(c3)OCO4)n2)cc(OC)c1OC` [Compound 252], the IC50 is < 1.01 µM in test [1]; < 1.01 µM in [2]; < 1.01 µM in test [3]; > 11.3 µM in [4]; 1.01 to 6.04 µM in test [5]; > 11.3 µM in [6]. The IC50 in [7] is 1.01 to 6.04 µM; in test [8], > 11.3 µM; in test [9], > 11.3 µM.

On to `COCCOc1ccc(Nc2ncnc(Nc3ccc4[nH]ccc4c3)n2)cc1OCCOC` [Compound 321], for which the IC50 in test [1] was 7.77 to 9.99 µM; in test [2] it was < 0.888 µM; in [3], 0.888 to 5.33 µM; in test [4], > 9.99 µM; in test [5] it was < 0.888 µM; in [6] it was > 9.99 µM. Moreover, the IC50 in [7] was > 9.99 µM; in test [8], > 9.99 µM; in [9], 0.888 to 5.33 µM.

Take `COc1ccc(Nc2ccc(Nc3ncnc(Nc4cc(OC)c(OC)c(OC)c4)n3)cc2)cc1` [Compound 922]: the IC50 was 0.843 to 5.06 µM in [1]; < 0.843 µM in test [2]; 0.843 to 5.06 µM in [3]; 5.06 to 7.38 µM in test [4]; 0.843 to 5.06 µM in [5]; 0.843 to 5.06 µM in [6]. In addition, the IC50 in test [7] is 5.06 to 7.38 µM; in [8] it was > 9.48 µM; in [9], 0.843 to 5.06 µM.
